Measurements taken from US11845759B2, “Opioid compounds and uses thereof” (priority 2018, dated 2023).

Key:
[1] = Hydrolysis in pH buffer/EtOH solutions; format: physicochemical; conditions: 6,14-bis-lauroyl-Oxycodone
[2] = Hydrolysis in HCl solutions; format: physicochemical; conditions: 6,14-bis-lauroyl-Oxycodone, 1.0N HCl (75% EtOH)
μ-opioid receptor [3] = target: T1, μ-opioid receptor (Homo sapiens (Human), UniProt P35372); format: binding
[4] = Hydrolysis in human blood serum at 37° C.; conditions: human blood serum (37° C.)
[5] = Hydrolysis in simulated intestinal fluid at 37° C.; conditions: mixture in simulated intestinal fluid (37° C., pH 6.8, pancreatine)
μ-opioid receptor [6] = target: T1, μ-opioid receptor; assay: [35S]GTPγS μ-opioid receptor functional assay; format: biochemical
[7] = pH 11 buffer (75% EtOH), 0.17 h
[8] = pH 11 buffer (75% EtOH), 22.5 h

In the case of `CCCCCCCCCCCC(=O)OC1=CC[C@@]2(OC(=O)CCCCCCCCCCC)[C@H]3Cc4ccc(OC)c5c4[C@@]2(CCN3C)C1O5` (stereo partly drawn) [6,14-bis-lauroyl oxycodone], the “6,14-bis-lauroyl-Oxy (%)” value ([1]; pH 7 buffer (75% EtOH), 0 h) is reported as 99%, the “Oxy (%)” value ([1]; pH 7 buffer (75% EtOH), 0 h) is reported as 0% and the “mono-lauroyl-Oxy (%)” value ([1]; pH 7 buffer (75% EtOH), 0 h) is reported as 0%. The “6,14-bis-lauroyl-Oxy (%)” value ([1]; pH 7 buffer (75% EtOH), 0.5 h) was 98%, the “Oxy (%)” value ([1]; pH 7 buffer (75% EtOH), 0.5 h) was 0% and the “mono-lauroyl-Oxy (%)” value ([1]; pH 7 buffer (75% EtOH), 0.5 h) was 1%. The “6,14-bis-lauroyl-Oxy (%)” value ([1]; pH 7 buffer (75% EtOH), 2 h) was 98%, the “Oxy (%)” value ([1]; pH 7 buffer (75% EtOH), 2 h) was 0% and the “mono-lauroyl-Oxy (%)” value ([1]; pH 7 buffer (75% EtOH), 2 h) was 2%. For the same compound, the “6,14-bis-lauroyl-Oxy (%)” value ([1]; pH 7 buffer (75% EtOH), 4 h) was 98%, the “Oxy (%)” value ([1]; pH 7 buffer (75% EtOH), 4 h) was 0% and the “mono-lauroyl-Oxy (%)” value ([1]; pH 7 buffer (75% EtOH), 4 h) was 2%. For the same compound, the “6,14-bis-lauroyl-Oxy (%)” value ([1]; pH 7 buffer (75% EtOH), 8 h) was 98%, the “Oxy (%)” value ([1]; pH 7 buffer (75% EtOH), 8 h) was 0% and the “mono-lauroyl-Oxy (%)” value ([1]; pH 7 buffer (75% EtOH), 8 h) was 2%. The “6,14-bis-lauroyl-Oxy (%)” value ([1]; pH 7 buffer (75% EtOH), 24 h) was 94.3%, the “Oxy (%)” value ([1]; pH 7 buffer (75% EtOH), 24 h) was 0% and the “mono-lauroyl-Oxy (%)” value ([1]; pH 7 buffer (75% EtOH), 24 h) was 5.7%. For the same compound, the “6,14-bis-lauroyl-Oxy (%)” value ([1]; pH 9 buffer (75% EtOH), 0 h) was 99%, the “Oxy (%)” value ([1]; pH 9 buffer (75% EtOH), 0 h) was 0% and the “mono-lauroyl-Oxy (%)” value ([1]; pH 9 buffer (75% EtOH), 0 h) was 0%. The “6,14-bis-lauroyl-Oxy (%)” value ([1]; pH 9 buffer (75% EtOH), 0.5 h) was 98.7%, the “Oxy (%)” value ([1]; pH 9 buffer (75% EtOH), 0.5 h) was 0% and the “mono-lauroyl-Oxy (%)” value ([1]; pH 9 buffer (75% EtOH), 0.5 h) was 1.3%. For the same compound, the “6,14-bis-lauroyl-Oxy (%)” value ([1]; pH 9 buffer (75% EtOH), 2 h) was 98.4%, the “Oxy (%)” value ([1]; pH 9 buffer (75% EtOH), 2 h) was 0% and the “mono-lauroyl-Oxy (%)” value ([1]; pH 9 buffer (75% EtOH), 2 h) was 1.6%. The “6,14-bis-lauroyl-Oxy (%)” value ([1]; pH 9 buffer (75% EtOH), 8.5 h) was 96.2%, the “Oxy (%)” value ([1]; pH 9 buffer (75% EtOH), 8.5 h) was 0% and the “mono-lauroyl-Oxy (%)” value ([1]; pH 9 buffer (75% EtOH), 8.5 h) was 3.8%. For the same compound, the “6,14-bis-lauroyl-Oxy (%)” value ([1]; pH 9 buffer (75% EtOH), 22.5 h) was 93.4%, the “Oxy (%)” value ([1]; pH 9 buffer (75% EtOH), 22.5 h) was 0% and the “mono-lauroyl-Oxy (%)” value ([1]; pH 9 buffer (75% EtOH), 22.5 h) was 6.6%. The “6,14-bis-lauroyl-Oxy (%)” value ([1]; pH 11 buffer (75% EtOH), 0 h) was 99%, the “Oxy (%)” value ([1]; pH 11 buffer (75% EtOH), 0 h) was 0% and the “mono-lauroyl-Oxy (%)” value ([1]; pH 11 buffer (75% EtOH), 0 h) was 0%. For the same compound, the “6,14-bis-lauroyl-Oxy (%)” value [1, 7] was 83.7%, the “Oxy (%)” value [1, 7] was 0.5% and the “mono-lauroyl-Oxy (%)” value [1, 7] was 16.3%. For the same compound, the “6,14-bis-lauroyl-Oxy (%)” value ([1]; pH 11 buffer (75% EtOH), 0.5 h) was 63.9%, the “Oxy (%)” value ([1]; pH 11 buffer (75% EtOH), 0.5 h) was 1% and the “mono-lauroyl-Oxy (%)” value ([1]; pH 11 buffer (75% EtOH), 0.5 h) was 33.1%. For the same compound, the “6,14-bis-lauroyl-Oxy (%)” value ([1]; pH 11 buffer (75% EtOH), 2 h) was 14.7%, the “Oxy (%)” value ([1]; pH 11 buffer (75% EtOH), 2 h) was 2.8% and the “mono-lauroyl-Oxy (%)” value ([1]; pH 11 buffer (75% EtOH), 2 h) was 60.5%. The “6,14-bis-lauroyl-Oxy (%)” value ([1]; pH 11 buffer (75% EtOH), 8.5 h) was 0%, the “Oxy (%)” value ([1]; pH 11 buffer (75% EtOH), 8.5 h) was 5.4% and the “mono-lauroyl-Oxy (%)” value ([1]; pH 11 buffer (75% EtOH), 8.5 h) was 94.6%. The “6,14-bis-lauroyl-Oxy (%)” value [1, 8] was 0%, the “Oxy (%)” value [1, 8] was 10.2% and the “mono-lauroyl-Oxy (%)” value [1, 8] was 89.8%. The “6,14-bis-lauroyl-Oxy (%)” value ([2]; 0 h) was 99%, the “Oxy (%)” value ([2]; 0 h) was 0% and the “mono-lauroyl-Oxy (%)” value ([2]; 0 h) was 0%. For the same compound, the “6,14-bis-lauroyl-Oxy (%)” value ([2]; 0.5 h) was 97%, the “Oxy (%)” value ([2]; 0.5 h) was 0% and the “mono-lauroyl-Oxy (%)” value ([2]; 0.5 h) was 2.9%. The “6,14-bis-lauroyl-Oxy (%)” value ([2]; 2 h) was 95.1%, the “Oxy (%)” value ([2]; 2 h) was 0% and the “mono-lauroyl-Oxy (%)” value ([2]; 2 h) was 4.7%. The “6,14-bis-lauroyl-Oxy (%)” value ([2]; 4 h) was 94%, the “Oxy (%)” value ([2]; 4 h) was 0% and the “mono-lauroyl-Oxy (%)” value ([2]; 4 h) was 6%. The “6,14-bis-lauroyl-Oxy (%)” value ([2]; 8 h) was 91.4%, the “Oxy (%)” value ([2]; 8 h) was 0% and the “mono-lauroyl-Oxy (%)” value ([2]; 8 h) was 8.6%. The “6,14-bis-lauroyl-Oxy (%)” value ([2]; 24 h) was 77.1%, the “Oxy (%)” value ([2]; 24 h) was 0% and the “mono-lauroyl-Oxy (%)” value ([2]; 24 h) was 22.9%. The Ki (μ-opioid receptor [3]) was 22.2 µM, the “Ki compared with that of oxycodone (in words)” value (μ-opioid receptor [3]) was “significantly higher” and the “binding to μ-opioid receptor (in words)” value (μ-opioid receptor [3]) was “does not bind to μ-opioid receptor well”.
In the case of `COc1ccc2c3c1OC1C(OC(C)=O)=CCC4[C@@H](C2)N(C)CC[C@]314` (stereo partly drawn) [6-acetyl hydrocodone], the “hydrolysis in human blood serum (in words)” value [4] is reported as “hydrolyzed quickly”, the “% hydrolyzed to hydrocodone” value ([4]; 30 minutes) is reported as 99% and the “% hydrolyzed to hydrocodone” value ([4]; five minutes) is reported as 70%.
In the case of `COc1ccc2c3c1OC1C(OC(C)=O)=CC[C@@]4(OC(C)=O)[C@@H](C2)N(C)CC[C@]314` (stereo partly drawn) [6,14-Diacetyl oxycodone, 6,14-bis-acetyl Oxycodone], the “hydrolysis products (in words)” value [5] is reported as “hydrolyzes to create additional 6-acetyl oxycodone and 14-acetyl oxycodone”.
With `COc1ccc2c3c1OC1C(=O)CCC4(OC(C)=O)C(C2)N(C)CCC314` (stereo not drawn) [14-acetyl oxycodone] the “% Response Agonist” value (μ-opioid receptor [6]; Conc. 3 μM, criteria ≥± 50%) was 79% and the “functional profile at μ-opioid receptor (in words)” value (μ-opioid receptor [6]; conclusion from Table 23) was “μ-receptor agonist as effective as oxycodone”.
